The values below are quoted from earlier work in patent US20220000787A1, “DELAYED RELEASE PHARMACEUTICAL COMPOSITION OF PREDNISONE AND PREPARATION THEREOF” (PIRAMAL PHARMA LIMITED, priority 2020, published 2022).

In the case of `C[C@]12C=CC(=O)C=C1CC[C@@H]1[C@@H]2C(=O)C[C@@]2(C)[C@H]1CC[C@]2(O)C(=O)CO` [Prednisone, 17,21-dihydroxypregna-1,4-diene-3,11,20-trione], the “Solubility in alcohol, chloroform, dioxane, and methanol” value (alcohol, chloroform, dioxane, methanol) is on record as “slightly soluble”. For the setting “water”, the Solubility in water result was “very slightly soluble”.
